Experiments:
Assay in all cases: Paper diffusion drug sensitivity test (zone of inhibition)
Assay type in all cases: cell-based
[1] = system: Staphylococcus aureus (SAU); conditions: LB agar, 37° C., 24 h, control drugs 30 μg/tablet, extract 128 μg/tablet, ≥17 mm sensitive, 15-16 mm intermediate, ≤14 mm resistant
Description: (§1) The bacteriostatic activity test experiment was carried out on the Syringa pubescens microphylla extract of the present invention, and the bacteriostatic effect was determined by a paper diffusion drug sensitivity method.
(§2) Experimental strains: Staphylococcus aureus (SAU), multi-drug resistant Staphylococcus aureus 18-206, multi-drug resistant Pseudomonas aeruginosa 18-261. The experimental strains were provided by Huashan Hospital, Fudan University (Institute of Antibiotics, Fudan University).
(§3) Drug sensitive paper: The drug sensitive paper is a special drug sensitive paper with a diameter of 6.35 mm and a water absorption of 0.02 mL. The control drugs were cefazolin sodium (30 μg/tablet), vancomycin (30 μg/tablet) and gentamicin (30 μg/tablet); the test drug was the Syringa pubescens microphylla extract (128 μg/tablet).
(§4) The experimental strains were inoculated in a non-selective medium and incubated in air at 37 C for 24 hours. A single colony was selected and inoculated into a broth medium, and incubated at 35±2° C. for 6 hours. LA broth medium was used to correct the concentration of the bacterial solution to 1.5×10^8 CFU/mL to obtain a bacterial suspension.
(§5) Weighing LB dry powder, autoclaving at 103.4 Kpa, 121.3° C. for 15 min, then placing in a 40° C.-50° C. water bath. Sterile empty plates (with an inner diameter of 9 cm) were placed on a water platform of the ultra-clean table. LB solution was poured to the plates, with agar thickness of 3 mm-4 mm. After the plates were cooled at room temperature, they were stored in a refrigerator at 2° C. to 8° C. Bacteria liquid was spread evenly with a sterile cotton swab on the surface of the LB plate 3 times. The LB plate was dried at room temperature for 3 min to 5 min. An antibacterial drug paper sheet was placed in the plate using sterile tweezers. The plates were placed in a 37° C. incubator for 24 h. The diameter of inhibition zone was measured. 0.5% DMSO solution was used as the negative control. The diameter of inhibition zone was to measure the antibacterial activity. Inhibition zone≥17 mm, sensitive; inhibition zone=15 mm-16 mm, intermediate; inhibition zone≤14 mm, resistant.

[2] = system: multi-drug resistant Staphylococcus aureus 18-171; conditions: strain 18-171; LB agar, 37° C., 24 h; control drugs 30 μg/tablet, extract 128 μg/tablet; ≥17 mm sensitive, 15-16 mm intermediate, ≤14 mm resistant
[3] = system: multi-drug resistant Pseudomonas aeruginosa 18-261; conditions: strain 18-261; LB agar, 37° C., 24 h; control drugs 30 μg/tablet, extract 128 μg/tablet; ≥17 mm sensitive, 15-16 mm intermediate, ≤14 mm resistant
Description: as §1, §2, §3, §4, §5

Row | Compound | Diameter of Inhibition Zone [1] [mm] | Diameter of Inhibition Zone [2] [mm] | Diameter of Inhibition Zone [3] [mm]
1 | CN[C@H](CC(C)C)C(=O)N[C@H]1C(=O)N[C@@H](CC(N)=O)C(=O)N[C@H]2C(=O)N[C@H]3C(=O)N[C@H](C(=O)N[C@H](C(=O)O)c4cc(O)cc(O)c4-c4cc3ccc4O)[C@H](O)c3ccc(c(Cl)c3)Oc3cc2cc(c3O[C@@H]2O[C@H](CO)[C@@H](O)[C@H](O)[C@H]2O[C@H]2C[C@](C)(N)[C@H](O)[C@H](C)O2)Oc2ccc(cc2Cl)[C@H]1O [vancomycin] | 23 | 17 | –
2 | gentamicin | 18 | 16 | 17
3 | Cc1nnc(SCC2=C(C(=O)O)N3C(=O)[C@@H](NC(=O)Cn4cnnn4)[C@H]3SC2)s1 [cefazolin sodium] | 10 | 0 | 0

From patent US11712457B2, “Syringa pubescens microphylla seed extract composition and its application in antibiotic-resistant infections” (SHAANXI UNIVERSITY OF SCIENCE AND TECHNOLOGY, priority 2020, dated 2023)
